Starred links: 1 amine or outer side, 2 acyl side, 3 side chain; linkers in the order of their positions; H or OH if unused. Residues, ends and D or L forms follow the SMILES beside them. Groups on a side chain read outwards from the residue. *: point of attachment. γGlu = O=C(O)[C@H](CCC(=O)[*:2])N[*:1]; Palmitoyl = CCCCCCCCCCCCCCCC(=O)*
Key:
CRF2R = target: T1, CRF2R (Homo sapiens, UniProt Q13324); assay: EC50 [nM] CRF2R
T1 construct: expressed in transfected cells; host or cells: TeloHEAC
Description: (§1) Table printed on a drawing sheet, Fig. 3
Head of the field: EC50 [nM] CRF2R
(§2) The patent's description of the figure: FIG. 3: Representative sequences from peptides according to the invention with an optimized stability profile, wherein K[sema] stands for K[gGlu-C(O)(CH2)14CH3]
(§3) First copying reader's note: Second half (positions 13-38, C-term and activity) of the first table; the rows follow the same order, so the four rows of Peptide Seq. 1 are Patent Sequence N° 130, 171, 172 and 173.
Where the first naming reader finds the target: head: EC50 [nM] CRF2R

hCRF1 = target: T2, hCRF1 (Homo sapiens, UniProt P34998); assay: hCRF1 EC50 [nM]
T2 construct: host or cells: CHO-K1 clone 2
T2 sequence (P34998 24-415 limits assumed): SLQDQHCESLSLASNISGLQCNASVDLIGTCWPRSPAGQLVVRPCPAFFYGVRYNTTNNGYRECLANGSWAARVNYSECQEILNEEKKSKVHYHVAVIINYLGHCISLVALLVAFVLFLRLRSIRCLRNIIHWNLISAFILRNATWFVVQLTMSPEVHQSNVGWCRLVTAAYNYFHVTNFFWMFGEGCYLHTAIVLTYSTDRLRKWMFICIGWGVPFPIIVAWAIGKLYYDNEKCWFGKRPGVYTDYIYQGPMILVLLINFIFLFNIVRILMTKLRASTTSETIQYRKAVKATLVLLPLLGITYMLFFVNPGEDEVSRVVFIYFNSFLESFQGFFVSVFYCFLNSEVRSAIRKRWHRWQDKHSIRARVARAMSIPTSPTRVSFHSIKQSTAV
Description: as §1
Head of the field: hCRF1 EC50 [nM]
as §2, §3
Where the first naming reader finds the target: head: hCRF1 EC50 [nM]

T1 sequence (Q13324 whole entry, looked up): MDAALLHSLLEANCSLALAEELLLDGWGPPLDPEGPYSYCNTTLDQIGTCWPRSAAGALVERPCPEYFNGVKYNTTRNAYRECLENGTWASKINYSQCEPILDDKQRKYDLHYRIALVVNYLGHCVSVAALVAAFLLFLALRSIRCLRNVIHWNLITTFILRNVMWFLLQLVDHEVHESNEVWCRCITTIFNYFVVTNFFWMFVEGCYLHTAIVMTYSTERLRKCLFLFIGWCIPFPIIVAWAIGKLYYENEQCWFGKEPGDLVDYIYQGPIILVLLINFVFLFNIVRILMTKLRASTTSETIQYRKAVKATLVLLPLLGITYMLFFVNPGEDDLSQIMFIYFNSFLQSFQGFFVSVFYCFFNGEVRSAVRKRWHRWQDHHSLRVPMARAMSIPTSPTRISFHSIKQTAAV

CCCCCCCCCCCCCCCC(=O)N[C@@H](CCC(=O)NCCCC[C@H](NC(=O)[C@@H](NC(=O)[C@H](CCCCN)NC(=O)[C@@H](NC(=O)[C@@H]1CCCN1C(=O)[C@@H](NC(=O)[C@H](CC(=O)O)NC(=O)[C@H](CC(C)C)NC(=O)[C@H](CO)NC(=O)[C@H](CC(C)C)NC(=O)[C@@H](NC(=O)[C@@H](N)Cc1ccccc1)[C@@H](C)O)C(C)C)[C@@H](C)O)[C@@H](C)CC)C(=O)N[C@@H](CCC(N)=O)C(=O)N[C@@H](CCCCN)C(=O)N[C@@H](CC(C)C)C(=O)N[C@@H](CC(C)C)C(=O)N[C@@H](CCCCN)C(=O)N[C@@H](CCC(N)=O)C(=O)N[C@@H](CCC(=O)O)C(=O)N[C@@H](CCCCN)C(=O)N[C@@H](CCC(N)=O)C(=O)N[C@@H](CCCCN)C(=O)N[C@@H](CCCCN)C(=O)N[C@@H](CCC(N)=O)C(=O)N[C@@H](CCCNC(=N)N)C(=O)N[C@@H](CCC(N)=O)C(=O)N[C@@H](CCCCN)C(=O)N[C@@H](C)C(=O)N[C@@H](CCCCN)C(=O)N[C@H](C(=O)N[C@@H](CC(N)=O)C(=O)N[C@@H](CCCCN)C(=O)N[C@@H](CCC(N)=O)C(=O)N[C@H](C(=O)N[C@@H](CC(C)C)C(=O)N[C@@H](CCC(=O)O)C(=O)N[C@@H](CCC(N)=O)C(=O)N[C@H](C(N)=O)C(C)C)[C@@H](C)CC)[C@@H](C)O)C(=O)O [SEQ ID NO: 10] (H-FTLSLDVPTKIK([γGlu-Palmitoyl])QKLLKQEKQKKQRQKAKTNKQILEQV-NH2)
EC50 (CRF2R): 0.07 nM
EC50 (hCRF1): 91 nM

From patent publication US12679878B2, “CRF2 receptor agonists and their use in therapy” (SANOFI, priority 2020, dated 2026)
